Results on 51 molecules are retold here after patent US20120258960A1, “NOVEL MULTIFUNCTIONAL PEPTIDASE INHIBITORS, ESPECIALLY FOR MEDICAL USE” (IMTM GMBH, priority 2009, published 2012).

Each structure is given as a SMILES string.

Assay [1] concerns the target human recombinant Aminopeptidase N (Homo sapiens, UniProt P15144). The assay can be described thus: Measurement of APN activity (fluorogenic substrate (Ala)2-R110). Type of assay: biochemical. As to conditions: human recombinant APN approx. 5 nM, substrate 0.5 μM, pH 7.5. How it is done:
Inhibitory effects of test items on the enzymatic activity of human recombinant Aminopeptidase N (final concentration approx. 5 nM) were assessed by using the fluorogenic substrate bis-(L-alanyl)-Rhodamine-110 (bis-trifluoracetate, abbreviation (Ala)2-R110) at a final concentration of 0.5 μM. The assay was performed in 0.05 M TRIS/HCl buffer pH 7.5, supplemented with 0.05% Triton (v/v), 0.05% BSA (w/v), 2 mM MgCl2.
The assay was performed in white microtitre plates for fluorescence measurements.
As controls, (Ala)2-R110 hydrolyzing activity in the absence of any test item as well as the spontaneous substrate hydrolysis was determined.
The release of the fluorescent hydrolysis product Rhodamine 110 was measured at an excitation wavelength of 485 nm and an emission wavelength of 530 nm by using a microtitre fluorescence reader immediately after substrate addition as well as after 30, 60 and 120 min.

Assay [2] concerns the target purified, recombinant human DPIV (Homo sapiens, UniProt P27487). The assay can be described thus: Measurement of DPIV activity (fluorogenic substrate (Ala-Pro)2-R110).
Procedure: The enzymatic activity of DPIV was assessed by the hydrolysis of the fluorogenic substrate bis-(L-alanyl-prolyl)-Rhodamin-110 (bis-trifluoracetate, abbreviation (Ala-Pro)2-R110). The final substrate concentration was 0.5 μM.
The assay was performed in white microtitre plates for fluorescence measurements. The test items, substrate and enzyme were diluted in assay buffer. […] As controls, the DPIV activity in the absence of test items as well as the spontaneous hydrolysis of the substrate was determined.

Chain of purified, recombinant human DPIV (P27487 whole entry): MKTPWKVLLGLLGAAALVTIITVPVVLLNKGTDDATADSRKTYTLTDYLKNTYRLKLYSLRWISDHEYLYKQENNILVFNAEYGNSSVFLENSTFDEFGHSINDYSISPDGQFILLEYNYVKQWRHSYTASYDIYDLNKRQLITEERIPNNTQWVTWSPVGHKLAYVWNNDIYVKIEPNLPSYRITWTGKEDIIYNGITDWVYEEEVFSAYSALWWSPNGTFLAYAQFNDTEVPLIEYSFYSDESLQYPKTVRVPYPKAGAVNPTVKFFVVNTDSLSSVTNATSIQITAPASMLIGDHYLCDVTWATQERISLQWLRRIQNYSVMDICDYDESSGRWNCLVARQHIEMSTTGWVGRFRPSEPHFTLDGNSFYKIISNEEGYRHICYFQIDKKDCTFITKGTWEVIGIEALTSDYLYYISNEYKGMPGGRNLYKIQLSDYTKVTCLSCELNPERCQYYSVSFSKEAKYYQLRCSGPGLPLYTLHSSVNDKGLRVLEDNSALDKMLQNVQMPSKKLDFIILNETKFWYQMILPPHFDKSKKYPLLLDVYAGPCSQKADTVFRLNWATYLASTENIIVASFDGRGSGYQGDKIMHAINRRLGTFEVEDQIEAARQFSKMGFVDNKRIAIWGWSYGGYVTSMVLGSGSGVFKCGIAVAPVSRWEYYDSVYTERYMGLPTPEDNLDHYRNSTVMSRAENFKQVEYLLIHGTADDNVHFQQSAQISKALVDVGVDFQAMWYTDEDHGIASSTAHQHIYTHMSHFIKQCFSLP
Chain of human recombinant Aminopeptidase N (P15144 whole entry): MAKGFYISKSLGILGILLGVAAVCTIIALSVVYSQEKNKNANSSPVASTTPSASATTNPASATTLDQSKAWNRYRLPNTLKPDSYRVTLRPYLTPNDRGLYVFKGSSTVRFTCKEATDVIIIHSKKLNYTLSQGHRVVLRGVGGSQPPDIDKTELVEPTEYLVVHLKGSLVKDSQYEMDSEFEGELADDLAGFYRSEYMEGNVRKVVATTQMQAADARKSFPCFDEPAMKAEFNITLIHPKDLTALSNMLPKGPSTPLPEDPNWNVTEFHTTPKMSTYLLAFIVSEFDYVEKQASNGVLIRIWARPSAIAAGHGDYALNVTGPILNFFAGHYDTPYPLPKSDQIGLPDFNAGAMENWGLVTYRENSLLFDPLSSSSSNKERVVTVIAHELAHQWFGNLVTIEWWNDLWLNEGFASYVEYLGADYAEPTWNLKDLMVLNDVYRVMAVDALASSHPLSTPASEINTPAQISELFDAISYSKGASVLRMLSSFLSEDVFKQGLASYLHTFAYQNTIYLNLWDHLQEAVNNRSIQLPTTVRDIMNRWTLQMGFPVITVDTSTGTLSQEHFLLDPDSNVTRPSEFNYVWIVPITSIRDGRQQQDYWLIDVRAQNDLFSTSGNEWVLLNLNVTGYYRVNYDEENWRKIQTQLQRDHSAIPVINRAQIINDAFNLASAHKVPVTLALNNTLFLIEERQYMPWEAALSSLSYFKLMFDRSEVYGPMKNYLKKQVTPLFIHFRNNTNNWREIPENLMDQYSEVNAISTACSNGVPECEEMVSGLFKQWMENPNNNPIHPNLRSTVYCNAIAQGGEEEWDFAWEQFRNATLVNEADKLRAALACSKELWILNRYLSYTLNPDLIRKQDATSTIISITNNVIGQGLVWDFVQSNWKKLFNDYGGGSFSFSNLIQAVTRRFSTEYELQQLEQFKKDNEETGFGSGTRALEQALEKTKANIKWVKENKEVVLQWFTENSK

As for `CC(C)(CNC(=O)CC(N)Cc1cc(F)ccc1F)CNC(=O)C(O)C(N)Cc1ccc(-c2ccccc2)cc1` (stereo not drawn) [drawing 75], the half-maximal inhibitory concentration (IC50) in assay [1] was 0.346 µM; in assay [2], 100 nM.
On to `NC(CC(=O)NCC1(CNC(=O)C(O)C(N)Cc2ccccc2)CCCCC1)Cc1cc(F)ccc1F` (stereo not drawn) [drawing 67], for which the IC50 in assay [1] amounted to 0.85 µM; in assay [2] it was 190 nM.
Consider `CC(C)(CNC(=O)CC(N)Cc1cc(F)ccc1F)CNC(=O)C(O)C(N)Cc1ccccc1` (stereo not drawn) [drawing 26], for which the IC50 in assay [1] worked out at 0.06 µM; in assay [2], 100 nM.
`CCCCCCCC(=O)OC(C(=O)NCC(C)(C)CNC(=O)CC(N)Cc1cc(F)ccc1F)C(N)Cc1ccccc1` (stereo not drawn) [drawing 41]: the IC50 is 0.2 µM in assay [1] and 300 nM in assay [2].
As for `NC(CC(=O)NCCCCNC(=O)C(O)C(N)Cc1ccccc1)C(=O)N1CCSC1` (stereo not drawn) [drawing 42], the figures for the half-maximal inhibitory concentration (IC50) in assay [1] and in assay [2] were more than 50 µM and 1700 nM, respectively.
As for `NC(CC(=O)NCC1(CNC(=O)C(O)C(N)Cc2ccccc2)CCC1)Cc1ccccc1` (stereo not drawn) [drawing 29], the figures for the half-maximal inhibitory concentration (IC50) in assay [1] and in assay [2] were 0.191 µM and 1670 nM, respectively.
On the same counts, the results for `CCCCCCCCCCCC(=O)OC(C(=O)NCC(C)(C)CNC(=O)CC(N)Cc1cc(F)ccc1F)C(N)Cc1ccccc1` (stereo not drawn) [drawing 47] are 18 µM and 600 nM.
For `CCCCCCCC(=O)OC(C(=O)NCCCCNC(=O)CC(N)Cc1cc(F)ccc1F)C(N)Cc1ccccc1` (stereo not drawn) [drawing 50], in that order: more than 50 µM and 120 nM.
As for `CCCCCCCC(=O)OC(C(=O)N(C)CCCNC(=O)CC(N)Cc1cc(F)ccc1F)C(N)Cc1ccccc1` (stereo not drawn) [drawing 44], the concentration for half-maximal inhibition (IC50) in assay [1] was more than 50 µM; in assay [2], 20 nM.
As to `CC(C)(CNC(=O)CC(N)Cc1ccccc1)CNC(=O)C(O)C(N)Cc1ccccc1` (stereo not drawn) [drawing 21], the half-maximal inhibitory concentration (IC50) in assay [1] was determined as 0.18 µM; in assay [2] it was 2000 nM.
Take `CCCCCCCCCCCCCCCC(=O)OC(C(=O)NCCCCNC(=O)CC(N)Cc1cc(F)ccc1F)C(N)Cc1ccccc1` (stereo not drawn) [drawing 53]: the half-inhibitory concentration (IC50) in assay [2] is 8000 nM.
Consider `NC(CC(=O)N1CCCN(C(=O)C(O)C(N)Cc2ccccc2)CC1)Cc1cc(F)ccc1F` (stereo not drawn) [drawing 65], for which the half-inhibitory concentration (IC50) was 10 µM in assay [1] and 70 nM in assay [2].
On to `CCCCCCCCCCCCCCCC(=O)OC(C(=O)NCC(C)(C)CNC(=O)CC(N)Cc1cc(F)ccc1F)C(N)Cc1ccccc1` (stereo not drawn) [drawing 43], for which the IC50 in assay [1] worked out at 0.03 µM; in assay [2], 60 nM.
On to `CN(CCCNC(=O)CC(N)Cc1cc(F)ccc1F)C(=O)C(O)C(N)Cc1ccccc1` (stereo not drawn) [drawing 40], for which the concentration for half-maximal inhibition (IC50) in assay [1] was 15.4 µM; in assay [2], 200 nM.
For `CC(C(=O)NCC(C)(C)CNC(=O)C(O)C(N)Cc1ccccc1)C(N)Cc1cc(F)ccc1F` (stereo not drawn) [drawing 60], the half-inhibitory concentration (IC50) in assay [1] came to 0.87 µM; in assay [2], 450 nM.
Regarding `NC(CC(=O)NCCCCNC(=O)C(O)C(N)Cc1ccccc1)Cc1ccccc1` (stereo not drawn) [drawing 23], the IC50 was determined as 0.18 µM in assay [1] and 2700 nM in assay [2].
`CCCCCCCCOC(C(=O)NCC(C)(C)CNC(=O)CC(N)Cc1cc(F)ccc1F)C(N)Cc1ccccc1` (stereo not drawn): the IC50 was more than 50 µM in assay [1] and 14000 nM in assay [2].
As for `NC(CC(=O)NCC1(CNC(=O)C(O)C(N)Cc2ccccc2)CCCC1)Cc1cc(F)ccc1F` (stereo not drawn) [drawing 68], the values for the IC50 in assay [1] and in assay [2] were 0.08 µM and 160 nM, respectively.
On to `CCCC(=O)OC(C(=O)NCC(C)(C)CNC(=O)CC(N)Cc1cc(F)ccc1F)C(N)Cc1ccccc1` (stereo not drawn) [drawing 54], for which the 50% inhibitory concentration (IC50) in assay [2] amounted to 80 nM.
In the case of `CC(C)(CNC(=O)CC(N)C(=O)N1CCSC1)CNC(=O)C(O)C(N)Cc1ccccc1` (stereo not drawn) [drawing 30], the IC50 was 2 µM in assay [1] and 2120 nM in assay [2].
Consider `CCCC(=O)NC(CC(=O)NCC(C)(C)CNC(=O)C(O)C(Cc1ccccc1)NC(=O)CCC)Cc1cc(F)ccc1F` (stereo not drawn) [drawing 38], for which the IC50 was more than 50 µM in assay [1] and more than 50000 nM in assay [2].
For `CC(C)(NC(=O)CC(N)Cc1ccccc1)C(C)(C)NC(=O)C(O)C(N)Cc1ccccc1` (stereo not drawn) [drawing 20], in that order: 16.7 µM and 13800 nM.
For the molecule `CCCCCCCCCCCCCCCCOC(C(=O)NCC(C)(C)CNC(=O)CC(N)Cc1cc(F)ccc1F)C(N)Cc1ccccc1` (stereo not drawn), the IC50 in assay [1] was more than 50 µM; in assay [2] it was 25000 nM.
`NC(CC(=O)NCCNC(=O)C(O)C(N)Cc1ccccc1)Cc1ccccc1` (stereo not drawn) [drawing 14]: the IC50 turned out to be 2.9 µM in assay [1] and 800 nM in assay [2].
As for `C[C@@H]1CN(C(=O)CC(O)C(N)Cc2ccccc2)C[C@H](C)N1C(=O)CC(N)Cc1ccccc1` (stereo partly drawn) [drawing 19], the results for the IC50 in assay [1] and in assay [2] were 22 µM and 280 nM, respectively.
For `CN(CCCNC(=O)C(O)C(N)Cc1ccccc1)C(=O)CC(N)Cc1cc(F)ccc1F` (stereo not drawn) [drawing 37], in that order: 0.7 µM and 72 nM.
For `NC(CC(=O)NCCCCNC(=O)C(O)C(N)Cc1ccccc1)Cc1cc(F)ccc1F` (stereo not drawn) [drawing 25], the IC50 in assay [1] worked out at 0.14 µM; in assay [2] it was 80 nM.
`CC(C)(CCNC(=O)CC(N)Cc1cc(F)ccc1F)CNC(=O)C(O)C(N)Cc1ccccc1` (stereo not drawn) [drawing 36]: the half-inhibitory concentration (IC50) in assay [1] is more than 50 µM; in assay [2], 100 nM.
For `CC(C)(CNC(=O)CC(N)Cc1ccccc1)CNC(=O)CC(O)C(N)Cc1ccccc1` (stereo not drawn) [drawing 24], the IC50 in assay [1] was more than 25 µM; in assay [2], 2200 nM.
For `NC(CC(=O)N1CCN(C(=O)CC(O)C(N)Cc2ccccc2)CC1)Cc1ccccc1` (stereo not drawn) [drawing 16], in that order: more than 50 µM and 900 nM.
For `CC(C)(CNC(=O)CC(N)Cc1cc(F)ccc1F)CNC(=O)C(O)C(N)Cc1ccc(-c2cccnc2)cc1` (stereo not drawn) [drawing 76], the figures for the IC50 in assay [1] and in assay [2] were 0.0008 µM and 96 nM, respectively.
For the molecule `NC(CC(=O)Nc1ccc(NC(=O)C(O)C(N)Cc2ccccc2)cc1)Cc1cc(F)ccc1F` (stereo not drawn) [drawing 39], the IC50 in assay [1] was 0.02 µM.
As for `CC(C)(CNC(=O)CC(CN)Cc1ccccc1)CNC(=O)C(O)C(N)Cc1ccccc1` (stereo not drawn) [drawing 34], the IC50 in assay [1] was 0.15 µM; in assay [2], more than 50000 nM.
For `NC(CC(=O)NC1CCCC(NC(=O)C(O)C(N)Cc2ccccc2)C1)Cc1cc(F)ccc1F` (stereo not drawn) [drawing 63], the values for the half-inhibitory concentration (IC50) in assay [1] and in assay [2] were 0.03 µM and 120 nM, respectively.
For the molecule `NC(CC(=O)NCCCCCNC(=O)C(O)C(N)Cc1ccccc1)Cc1ccccc1` (stereo not drawn) [drawing 27], the results for the half-maximal inhibitory concentration (IC50) in assay [1] and in assay [2] were 0.12 µM and 2670 nM, respectively.
For `CN(CCCN(C)C(=O)C(O)C(N)Cc1ccccc1)C(=O)CC(N)Cc1cc(F)ccc1F` (stereo not drawn) [drawing 32], in that order: 8.5 µM and 178 nM.
With `CC(C)(CNC(=O)CC(N)Cc1cc(F)ccc1F)CNC(=O)C1OC(=O)NC1Cc1ccc(-c2ccccc2)cc1` (stereo not drawn) [drawing 69], the IC50 in assay [1] was found to be 1.9 µM; in assay [2] it was 40000 nM.
`CC(C)(CNC(=O)CC(N)Cc1cc(F)ccc1F)CNC(=O)C(O)C(N)Cc1ccc(-c2cncnc2)cc1` (stereo not drawn) [drawing 77]: the 50% inhibitory concentration (IC50) stood at 0.01 µM in assay [1] and 100 nM in assay [2].
As for `NC(CC(=O)NCCCCNC(=O)C(O)C(N)Cc1ccc(C(=O)O)cc1)Cc1cc(F)ccc1F` (stereo not drawn) [drawing 45], the IC50 in assay [1] is more than 50 µM; in assay [2], 470 nM.
On to `NC(CC(=O)NCC1(CNC(=O)C(O)C(N)Cc2ccccc2)CCC1)Cc1cc(F)ccc1F` (stereo not drawn) [drawing 57], for which the results for the IC50 in assay [1] and in assay [2] were 0.07 µM and 100 nM, respectively.
On to `NC(CC(=O)N1CCN(C(=O)C(O)C(N)Cc2ccccc2)CC1)Cc1ccccc1` (stereo not drawn) [drawing 17], for which the results for the IC50 in assay [1] and in assay [2] were 27 µM and 800 nM, respectively.
Regarding `NC(CC(=O)NCCNC(=O)CC(O)C(N)Cc1ccccc1)Cc1ccccc1` (stereo not drawn) [drawing 18], the values for the concentration for half-maximal inhibition (IC50) in assay [1] and in assay [2] were more than 50 µM and 1000 nM, respectively.
Consider `CCC(CC)(CNC(=O)CC(N)Cc1cc(F)ccc1F)CNC(=O)C(O)C(N)Cc1ccccc1` (stereo not drawn) [drawing 59], for which the IC50 in assay [1] was 0.3 µM; in assay [2] it was 100 nM.
For `NC(CC(=O)NCCCCNC(=O)C(O)C(N)Cc1ccc(Br)cc1)Cc1cc(F)ccc1F` (stereo not drawn) [drawing 61], the figures for the half-maximal inhibitory concentration (IC50) in assay [1] and in assay [2] were 0.06 µM and 100 nM, respectively.
For `CC(C)(CNC(=O)CC(N)Cc1cc(F)ccc1F)CNC(=O)C(O)C(N)Cc1ccc(-c2ccsc2)cc1` (stereo not drawn) [drawing 74], in that order: 0.001 µM and 100 nM.
For `CN(CCCNC(=O)OCc1ccccc1)C(=O)C(O)C(N)Cc1ccccc1` (stereo not drawn) [drawing 72], in that order: 11.5 µM and more than 50000 nM.
Turning to `NC(CNC(=O)c1cccc(NC(=O)C(O)C(N)Cc2ccc(-c3cccnc3)cc2)c1)Cc1cc(F)ccc1F` (stereo not drawn) [drawing 79], the figures for the IC50 in assay [1] and in assay [2] were 0.0008 µM and 775 nM, respectively.
Consider `CCCCCCCC(=O)NC(CC(=O)NCC(C)(C)CNC(=O)C(O)C(Cc1ccccc1)NC(=O)CCCCCCC)Cc1cc(F)ccc1F` (stereo not drawn) [drawing 33], for which the IC50 is more than 50 µM in assay [1] and more than 50000 nM in assay [2].
Take `CCCCCCCCCCCCCC(=O)NC(CC(=O)NCC(C)(C)CNC(=O)C(O)C(Cc1ccccc1)NC(=O)CCCCCCCCCCCCC)Cc1cc(F)ccc1F` (stereo not drawn) [drawing 58]: the IC50 came to 32 µM in assay [1] and 5500 nM in assay [2].
Turning to `NC(CNC(=O)c1cccc(NC(=O)C(O)C(N)Cc2ccc(-c3ccsc3)cc2)c1)Cc1cc(F)ccc1F` (stereo not drawn) [drawing 78], the IC50 in assay [1] is 0.0005 µM; in assay [2], 460 nM.
As for `CCCCCC(=O)OC(C(=O)NCC(C)(C)CNC(=O)CC(N)Cc1cc(F)ccc1F)C(N)Cc1ccccc1` (stereo not drawn) [drawing 55], the results for the IC50 in assay [1] and in assay [2] were 1.9 µM and 30 nM, respectively.

For orientation: IC50 means the concentration that inhibits the measured activity by half.
